Converted amounts (≈) assume the structure as drawn.
Tests used:
[1] = system: Colinus virginianus; conditions: acute, oral, mortality
[2] = system: Tagia sp.
[3] = system: Mus musculus
[4] = system: Oncorhynchus mykiss
[5] = system: Rattus norvegicus
[6] = system: Daphnia magna; conditions: chronic/long-term; duration: 21 days; reproduction
[7] = system: Apis mellifera; conditions: acute; duration: 48 hours; dermal; mortality
[8] = system: Anas platyrhynchos

For `Cc1cc(C)c(C2=C(OC(=O)CC(C)(C)C)C3(CCCC3)OC2=O)c(C)c1` [Spiromesifen], the LC50 ([1]; diet) was greater than 5000 mg/kg, the LD50 [1] was greater than 2000 mg/kg and the LC50 ([2]; acute, duration: 14 days, mortality) was greater than 1000 mg/kg. It also gave an NOEC ([2]; chronic/long-term, duration: 56 days, reproduction) of 4.32 mg/kg, an NOAEL ([3]; chronic, duration: 18 months) of 3 mg/kg-day and an NOAEL ([3]; subchronic, duration: 90 days, oral, clinical chemistry) of 3 mg/kg-day. For the same compound, the LC50 ([4]; acute, duration: 96 hours, mortality) was 0.016 µg/mL (≈ 0.0432 µM), the NOEC ([4]; chronic/long-term, duration: 97 days) was 0.00473 mg/L and the NOAEL ([5]; acute, neurology) was 2000 mg/kg-day. It also gave an LD50 ([5]; acute, oral, mortality) greater than 2500 mg/kg, an NOEC ([5]; reproduction developmental, reproduction) of 30 mg/kg-day and an NOEC [6] of 0.00025 mg/L. For the same compound, the LD50 [7] was greater than 200 µg/piece, the NOEC ([8]; reproductive, reproduction) was 229 mg/kg and the LC50 ([8]; short-term, oral, feed, mortality) was greater than 5000 mg/kg.

Source: EPA's ToxValDB 9.5 (doi:10.2903/j.efsa.2012.2879)
